Results as given in the NIST ThermoML archive (doi:10.1021/je101012n).

Assay: mn = molality of the nth substance listed, in mol/kg
Conditions: 101 kPa, Liquid, Alternating current cell with electrodes

O=[N+]([O-])[O-].O=[N+]([O-])[O-].[Mg+2] [magnesium nitrate] + O
electrical conductivity [S/m]
Conditions	278.1 K	283.1 K	298.15 K	308.15 K	318.15 K	343.15 K	363.15 K
m1 = 9.8e-05	0.007334	0.008166	0.01072	0.01244	0.01407	0.01831	0.02164
m1 = 0.000976	0.01971	0.02238	0.03083	0.03667	0.04272	0.0591	0.07277
m1 = 0.00937	0.1291	0.1472	0.2073	0.2488	0.2927	0.4146	0.5165
m1 = 0.09844	1.079	1.228	1.724	2.078	2.442	3.471	4.261
m1 = 0.3271	3.129	3.538	4.926	5.922	6.968	9.861	11.62

[Cl-].[Cs+] [cesium chloride] + O
electrical conductivity [S/m]
Conditions	278.15 K	283.15 K	298.15 K	308.15 K	318.15 K	343.15 K	363.15 K
m1 = 0.000106	0.001018	0.001151	0.001597	0.001917	0.002242	0.003135	0.004007
m1 = 0.00101	0.009529	0.01089	0.0151	0.01817	0.02103	0.0293	0.03658
m1 = 0.01058	0.09738	0.1107	0.1539	0.185	0.2142	0.2972	0.3702
m1 = 0.1009	0.8548	0.9735	1.346	1.614	1.859	2.604	3.107
m1 = 0.4763	3.754	4.256	5.762	6.816	7.917	11.01	13.23
m1 = 1.09	8.303	9.355	12.29	14.25	16.55	22.98	26.87

O=S(=O)([O-])O.[K+] [hydrogen potassium sulfate] + O
electrical conductivity [S/m]
Conditions	278.15 K	283.15 K	298.15 K	308.15 K	318.15 K	343.15 K	363.15 K
m1 = 0.000161	0.006027	0.006684	0.008772	0.01017	0.01154	0.01478	0.01675
m1 = 0.000981	0.03588	0.03981	0.05156	0.05895	0.06564	0.07958	0.0854
m1 = 0.01608	0.4635	0.5067	0.623	0.6784	0.7238	0.7958	0.8195
m1 = 0.09815	2.141	2.318	2.791	2.998	3.157	3.469	3.665
m1 = 0.2291	4.379	4.728	5.71	6.137	6.456	7.159	7.699

O=S(=O)([O-])[O-].[K+].[K+] [potassium sulfate] + O
electrical conductivity [S/m]
Conditions	278.15 K	283.15 K	298.15 K	308.15 K	318.15 K	343.15 K	363.15 K
m1 = 0.000102	0.001969	0.002257	0.003175	0.003884	0.004575	0.006401	0.00794
m1 = 0.00105	0.01881	0.02141	0.03006	0.03611	0.04268	0.06018	0.07466
m1 = 0.01061	0.1685	0.1919	0.2675	0.3216	0.3765	0.5269	0.6441
m1 = 0.1048	1.341	1.523	2.11	2.516	2.94	4.064	4.957
m1 = 0.2029	2.362	2.672	3.705	4.409	5.138	7.099	8.722
m1 = 0.4783	5.151	5.78	7.801	9.298	10.8	14.91	17.97

O=C([O-])O.[K+] [potassium bicarbonate] + O
electrical conductivity [S/m]
Conditions	278.15 K	283.15 K	298.15 K	308.15 K	318.15 K	343.15 K	363.15 K
m1 = 0.001	0.007403	0.00834	0.01179	0.01416	0.01673	0.02401	0.03038
m1 = 0.00992	0.0687	0.07877	0.1107	0.1335	0.1573	0.2237	0.2794
m1 = 0.09998	0.6141	0.7003	0.9852	1.176	1.383	1.963	2.446
m1 = 0.5001	2.664	3.031	4.206	5.066	5.94	8.391	10.49
m1 = 0.9999	4.748	5.358	7.365	8.802	10.31	14.3	17.93

O=C([O-])[O-].[Na+].[Na+] [sodium carbonate] + O
electrical conductivity [S/m]
Conditions	278.15 K	283.15 K	298.15 K	308.15 K	318.15 K	343.15 K	363.15 K
m1 = 0.000912	0.01348	0.01603	0.02439	0.02888	0.03495	0.05196	0.06513
m1 = 0.01031	0.1285	0.1491	0.2182	0.2684	0.3237	0.4867	0.6187
m1 = 0.09334	0.886	1.024	1.486	1.822	2.182	3.222	4.117
m1 = 0.3041	2.324	2.685	3.893	4.781	5.713	8.362	10.64

O=[N+]([O-])[O-].O=[N+]([O-])[O-].O=[N+]([O-])[O-].[Fe+3] [ferric nitrate] + O
electrical conductivity [S/m]
Conditions	278.1 K	283.1 K	298.15 K	308.15 K	318.15 K	343.15 K	363.15 K
m1 = 9.9e-05	–	–	–	–	–	9.086	10.27
m1 = 0.000984	–	–	–	–	–	9.106	10.33
m1 = 0.00985	–	–	–	–	–	9.553	10.91
m1 = 0.09618	5.143	5.777	7.576	8.788	10.15	13.85	16.52
m1 = 0.2534	6.656	7.523	9.984	11.83	14.02	20.32	–
